“And” between values parts separate entries of the source, which are not always exact repeats. Equal values may be shown once. Read-outs that look alike come from different tables or passages of the source.
Columns and labels:
[1] = system: A-549 (lung) cancer cell line; test: Antiproliferative assay, A-549; type: cell-based, human; settings: read-out: Antiproliferative activity IC50 ± SEM, A-549
Method: (§1) Table 1 presents the median inhibitory concentration (IC50) and GI50 (mean IC50) for the four cancer cell lines.
(§2) Refer to Appendix A for additional information.
(§3) To explore the antiproliferative potential of compounds propidium iodide fluorescence assay was performed using different cell lines such as Panc-1 (pancreas cancer cell line) [Panc-1-CTC (RRID:CVCL_VQ69)], MCF-7 (breast cancer cell line) [MCF-7 (RRID:CVCL_0031)], HT-29 (colon cancer cell line) [HT-29 (RRID:CVCL_0320)] and A-549 (epithelial cancer cell line)[A-549 (RRID:CVCL_0023)], respectively. All cell lines were obtained from ATCC (American Type Cell Culture).
(§4) To calculate the total nuclear DNA, a fluorescent dye (propidium iodide, PI) is used which can attach to the DNA, thus offering a quick and precise technique. PI cannot pass through the cell membrane and its signal intensity can be considered as directly proportional to quantity of cellular DNA. Cells whose cell membranes are damaged or have changed permeability are counted as dead ones. The assay was performed by seeding the cells of different cell lines at a density of 3000-7500 cells/well (in 200 μl medium) in culture plates followed by incubation for 24 h at 37 °C in humidified 5% CO2 /95% air atmospheric conditions. The medium was removed; the compounds were added to the plates at 10 μM concentrations (in 0.1% DMSO) in triplicates, followed by incubation for 48 h. DMSO (0.1%) was used as control. After incubation, medium was removed followed by the addition of PI (25 μl, 50 μg/mL in water/medium) to each well of the plates. At -80 °C, the plates were allowed to freeze for 24 h, followed by thawing at 25 °C. A fluorometer (Polar-Star BMG Tech) was used to record the readings at excitation and emission wavelengths of 530 and 620 nm for each well. The percentage cytotoxicity of compounds was calculated using the following formula: […]

[2] = system: MCF-7 (breast) cancer cell line; test: Antiproliferative assay, MCF-7; type: cell-based, human; settings: for IC50: read-out: Antiproliferative activity IC50 ± SEM, MCF-7; for Fold more potent than erlotinib (MCF-7 IC50): MCF-7 IC50 ratio to erlotinib
Method: as §1, §2, §3, §4

[3] = system: Panc-1 (pancreatic) cancer cell line; test: Antiproliferative assay, Panc-1; type: cell-based, human; settings: read-out: Antiproliferative activity IC50 ± SEM, Panc-1
Method: as §1, §2, §3, §4

[4] = system: HT-29 (colon) cancer cell line; test: Antiproliferative assay, HT-29; type: cell-based, human; settings: read-out: Antiproliferative activity IC50 ± SEM, HT-29
Method: as §1, §2, §3, §4

[5] = system: four cancer cell lines (A-549, MCF-7, Panc-1, HT-29); test: Antiproliferative assay, mean over the four cancer cell lines (GI50); type: cell-based, human; settings: for IC50: mean IC50 of A-549, MCF-7, Panc-1, HT-29
Excerpt: as §1, §2
All cell lines were obtained from ATCC (American Type Cell Culture). […]

MCF-10A = settings: 50 µM
Method: (§7) The viability of the investigated compounds was assessed using the normal human mammary gland epithelial cell line MCF-10A. After four days of incubation on MCF-10A cells with 50 µM of each examined compound, cell viability was assessed using the MTT test[46]^,[47].
(§8) The viability of 7a–o was determined using the normal human mammary gland epithelial (MCF-10A) cell line^46,[47].
(§9) MTT assay was performed to investigate the effect of the synthesized compounds on mammary epithelial cells (MCF-10A). The cells were propagated in medium consisting of Ham's F-12 medium/ Dulbecco's modified Eagle's medium (DMEM) (1:1) supplemented with 10% foetal calf serum (GIBCO, UK), 2 mM glutamine, insulin (10 μg/mL), hydrocortisone (500 ng/mL) and epidermal growth factor (20 ng/mL). Trypsin ethylenediamine tetra acetic acid (EDTA) was used to passage the cells after every 2-3 days. 96-well flat-bottomed cell culture plates were used to seed the cells at a density of 10^4 cells mL^-1. The medium was aspirated from all the wells of culture plates after 24 h followed by the addition of synthesized compounds (in 200 μL medium to yield a final concentration of 0.1% (v/v) dimethyl sulfoxide) into individual wells of the plates. Four wells were designated to a single compound. The plates were allowed to incubate at 37°C for 96 h. Afterwards, the medium was aspirated and 3-[4,5-dimethylthiazol-2-yl]-2,5-diphenyltetrazolium bromide (MTT) (0.4 mg/mL) in medium was added to each well and subsequently incubated for 3 h. The medium was aspirated and 150 μL dimethyl sulfoxide (DMSO) was added to each well. The plates were vortexed followed by the measurement of absorbance at 540 nm on a microplate reader.

EGFR = EGFR (Homo sapiens, UniProt P00533); test: EGFR-TK inhibitory assay
Method: To record autophosphorylation level, EGFR kinase assay was carried out on the basis of DELFIA/Time-Resolved Fluorometry. […] Each compound (10 μL) was incubated with recombinant enzyme (10 μL, 5 ng for EGFR, 1:80 dilution in 100 mM HEPES) for 10 min at 25 °C, subsequent to the addition of 5X buffer (10 μL, containing 2 mM MnCl2, 100 μM Na3VO4, 20 mM HEPES and 1 mM DTT) and ATP-MgCl2 (20 μL, containing 0.1 mM ATP and 50 mM MgCl2) and incubation for 1h. The negative and positive controls were included in each plate by the incubation of enzyme either with or without ATP-MgCl2. The liquid was removed after incubation and the plates were washed thrice using a wash buffer. The Europium-tagged antiphosphotyrosine antibody (75 μL, 400 ng) was added to each well followed by incubation of 1h and then washing of the plates using buffer. […] The autophosphorylation percentage inhibition by compounds was calculated using the following equation:
The majority of signals detected by antiphosphotyrosine antibody were from EGFR because the enzyme preparation contained low impurities.

VEGFR-2 = VEGFR-2 (Homo sapiens, UniProt P35968); test: VEGFR-2 kinase inhibitory assay
Method: Prepare all the solutions using autoclaved, deionized water and analytical grade reagents. Prepare and store all the reagents at room temperature (unless indicated otherwise). […] The assays used an ULight-labeled peptide substrate and a Europium-W1024-labeled antiphosphotyrosine antibody. The VEGFR-2 was purchased from Carna Biosciences, Inc. (New York, USA). The 384-well plates were obtained from PerkinElmer. […] Negative control: 2.5 μL/well 4×substrate/ATP mixture and 7.5 μL 1×kinase assay buffer in 384-well plate well. […] After incubation at room temperature and dark for 60 min, 5 μL 4×stop solution was added to corresponding wells to react for 5 min and then 5 μL 4×detection mix was added to the corresponding wells of a 384-well plate. The mixture was centrifugally mixed and stayed for 60 min at room temperature for color development. The plate was read using an Envision plate reader. The inhibition rate (%) = (positive well reading-compound well reading)/(positive well reading-negative well reading)×100. The corresponding IC50 values were calculated using GraphPad Prism 5.0.

VEGFR-2 kinase = settings: read-out: VEGFR-2 kinase IC50; cited from earlier work
Bcl-2 = test: Apoptotic markers assay, Bcl-2 level in A-549 cells; type: cell-based, human; settings: for Bcl-2 level: control 5
Method: (§5) The Bcl-2 protein family, comprising inducer proteins (Bax) and suppressor proteins (Bcl-2), primarily regulates apoptosis.
(§6) Appendix A gives more details.
Mix all the reagents thoroughly without foaming before use. Wash the microwells twice with approximately 300 μL Wash Buffer per well with thorough aspiration of microwell contents between washes. Take caution not to scratch the surface of the microwells. After the last wash, empty the wells and tap microwell strips on absorbent pad or paper towel to remove excess Wash Buffer. Use the microwell strips immediately after washing or place upside down on a wet absorbent paper for not longer than 15 minutes. […] Add 100 μL of Sample Diluent in duplicate to all standard wells and to the blank wells. Prepare standard (1:2 dilution) in duplicate ranging from 32 ng/mL to 0.5 ng/mL. Add 100 μL of Sample Diluent, in duplicate, to the blank wells. Add 80 μL of Sample Diluent, in duplicate, to the sample wells. Add 20 μL of each Sample, in duplicate, to the designated wells. Add 50 μL of diluted biotin-conjugate to all wells, including the blank wells. Cover with a plate cover and incubate at room temperature, on a microplate shaker at 100 rpm if available, for 2 hours. Remove plate cover and empty the wells. Wash microwell strips 3 times as described in step 2. Add 100 μL of diluted Streptavidin-HRP to all wells, including the blank wells. Cover with a plate cover and incubate at room temperature, on a microplate shaker at 100 rpm if available, for 1 hour. Remove the plate cover and empty the wells. Wash microwell strips 3 times as described in step 2. Proceed to the next step. Pipette 100 μl of mixed TMB Substrate Solution to all wells, including the blanks. Incubate the microwell strips at room temperature (18° to 25°C) for about 15 minutes, if available on a rotator set at 100 rpm. Avoid direct exposure to intense light. The point, at which the substrate reaction is stopped, is often determined by the ELISA reader. Many ELISA readers record absorbance only up to 2.0 O.D. Therefore, the color development within individual microwells must be watched by the person running the assay and the substrate reaction stopped before positive wells are no longer properly detectable. Stop the enzyme reaction by quickly pipetting 100 μL of Stop Solution into each well, including the blank wells. It is important that the Stop Solution is spread quickly and uniformly throughout the microwells to completely inactivate the enzyme. Results must be read immediately after the Stop Solution is added or within one hour if the microwell strips are stored at 2 - 8°C in the dark. Read the absorbance of each microwell on a spectrophotometer using 450 nm as the primary wavelength.

Bax = test: Apoptotic markers assay, Bax level in A-549 cells; type: cell-based, human; settings: for Bax level: control 60; for Bax fold change: relative to untreated control
Method: as §5, §6
Bring all reagents, except the human Bax-α Standard, to room temperature for at least 30 minutes prior to opening. The human Bax-α Standard solution should not be left at room temperature for more than 10 minutes. All standards, controls and samples should be run in duplicate. Refer to the Assay Layout Sheet to determine the number of wells to be used and put any remaining wells with the desiccant back into the pouch and seal the ziploc. Store unused wells at 4 °C. Pipet 100 μL of Assay Buffer into the S0 (0 pg/mL standard) wells. Pipet 100 μL of Standards #1 through #6 into the appropriate wells. Pipet 100 μL of the Samples into the appropriate wells. Tap the plate gently to mix the contents. Seal the plate and incubate at room temperature on a plate shaker for 1 hour at ~500 rpm. Empty the contents of the wells and wash by adding 400 μL of wash solution to every well. Repeat the wash 4 more times for a total of 5 washes. After the final wash, empty or aspirate the wells and firmly tap the plate on a lint free paper towel to remove any remaining wash buffer. Pipet 100 μL of yellow Antibody into each well, except the Blank. Seal the plate and incubate at room temperature on a plate shaker for 1 hour at ~500 rpm. Empty the contents of the wells and wash by adding 400 μL of wash solution to every well. Repeat the wash 4 more times for a total of 5 washes. After the final wash, empty or aspirate the wells and firmly tap the plate on a lint free paper towel to remove any remaining wash buffer. Add 100 μL of blue Conjugate to each well, except the Blank. Seal the plate and incubate at room temperature on a plate shaker for 30 minutes at ~500 rpm. Empty the contents of the wells and wash by adding 400 μL of wash solution to every well. Repeat the wash 4 more times for a total of 5 washes. After the final wash, empty or aspirate the wells and firmly tap the plate on a lint free paper towel to remove any remaining wash buffer. Pipet 100 μL of Substrate Solution into each well. Incubate for 30 minutes at room temperature on a plate shaker at ~500 rpm. Pipet 100 μL Stop Solution to each well. Blank the plate reader against the Blank wells, read the optical density at 450 nm. Calculate the average net Optical Density (OD) bound for each standard and sample by subtracting the average Blank OD from the average OD for each standard and sample. Using linear graph paper, plot the Average Net OD for each standard versus Bax concentration in each standard. Approximate a straight line through the points. The concentration of Bax in the unknowns can be determined by interpolation.

p53 = test: Apoptotic markers assay, p53 level in A-549 cells; type: cell-based, human; settings: control 65
Excerpt: as §5
A prime example of a gene product is the p53 protein, which affects apoptosis. The potential for p53 overexpression to induce apoptosis may elucidate the frequent deactivation of p53 enzymes by cancer cells during transformation.
as §6

[6] = Cell viability assay (MTT) on normal cell line; settings: human, MCF-10A normal mammary gland epithelial cells
Method: as §7, §8, §9

EGFR^T790M = system: EGFR^T790M; parameters: method as in PMID 26275028; settings: cited from earlier work
EGFR^L858R = system: EGFR^L858R; parameters: method as in PMID 26275028; settings: cited from earlier work
wild-type EGFR = system: wild-type EGFR; parameters: method as in PMID 26275028; settings: cited from earlier work

Sequence of VEGFR-2 (P35968 20-1356): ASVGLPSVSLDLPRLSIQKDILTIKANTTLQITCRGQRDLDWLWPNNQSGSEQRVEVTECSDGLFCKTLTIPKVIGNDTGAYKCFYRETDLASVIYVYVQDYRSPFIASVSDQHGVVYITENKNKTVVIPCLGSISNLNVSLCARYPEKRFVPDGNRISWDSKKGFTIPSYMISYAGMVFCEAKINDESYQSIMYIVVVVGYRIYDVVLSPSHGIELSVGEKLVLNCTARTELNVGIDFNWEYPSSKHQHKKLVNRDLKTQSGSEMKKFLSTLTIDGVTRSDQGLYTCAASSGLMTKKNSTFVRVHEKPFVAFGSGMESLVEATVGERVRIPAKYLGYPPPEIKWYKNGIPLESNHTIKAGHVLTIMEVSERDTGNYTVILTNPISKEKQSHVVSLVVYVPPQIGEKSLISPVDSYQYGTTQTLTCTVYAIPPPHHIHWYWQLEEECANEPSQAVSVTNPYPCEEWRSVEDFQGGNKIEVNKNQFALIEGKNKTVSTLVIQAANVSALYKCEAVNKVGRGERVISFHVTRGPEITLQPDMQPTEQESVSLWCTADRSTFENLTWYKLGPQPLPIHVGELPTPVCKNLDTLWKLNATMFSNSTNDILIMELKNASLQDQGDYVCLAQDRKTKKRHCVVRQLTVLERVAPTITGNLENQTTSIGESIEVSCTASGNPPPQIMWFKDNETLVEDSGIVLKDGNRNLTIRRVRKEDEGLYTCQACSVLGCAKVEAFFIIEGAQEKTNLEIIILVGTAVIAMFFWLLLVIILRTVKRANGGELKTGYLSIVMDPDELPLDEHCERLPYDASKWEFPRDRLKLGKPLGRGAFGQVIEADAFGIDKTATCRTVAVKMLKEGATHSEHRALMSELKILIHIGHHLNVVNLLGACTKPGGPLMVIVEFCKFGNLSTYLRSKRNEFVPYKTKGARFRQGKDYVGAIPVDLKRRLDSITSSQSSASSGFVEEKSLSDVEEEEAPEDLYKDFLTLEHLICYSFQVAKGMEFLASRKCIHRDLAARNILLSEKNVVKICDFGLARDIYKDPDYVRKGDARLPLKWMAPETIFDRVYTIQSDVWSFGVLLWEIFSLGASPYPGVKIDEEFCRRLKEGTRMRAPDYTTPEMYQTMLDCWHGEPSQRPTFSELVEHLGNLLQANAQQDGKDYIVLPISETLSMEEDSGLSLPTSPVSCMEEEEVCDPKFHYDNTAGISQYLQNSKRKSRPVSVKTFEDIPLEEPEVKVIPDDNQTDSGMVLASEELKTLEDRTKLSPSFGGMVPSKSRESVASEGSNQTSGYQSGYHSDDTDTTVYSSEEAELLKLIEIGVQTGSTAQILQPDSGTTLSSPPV

IC50 ([1]; Homo sapiens, A549) [nM]	IC50 ([2]; Homo sapiens, MCF7) [nM]	IC50 ([3]; Homo sapiens, PANC-1) [nM]	IC50 ([4]; Homo sapiens) [nM]	IC50 ([5]; Homo sapiens) [nM]	IC50 (EGFR; EGFR inhibition IC50 ± SEM) [nM]	IC50 (VEGFR-2) [nM]	Compound	Bcl-2 level (Bcl-2) [ng/mL]	Bax level (Bax) [pg/mL]	Bax fold change (Bax)	p53 level (p53) [pg/mL]	viability at 96 h, 50 µM [6] [%]	other results
							(E)-5-(ethylsulfonyl)-N′-(3-methoxybenzylidene)-1H-indazole-3-carbohydrazide [Compound 7l]						IC50 ([1]; A-549): 41 ± 3 nM; IC50 ([2]; MCF-7): 43 ± 3 nM; IC50 ([3]; Panc-1): 42 ± 4 nM; IC50 [4]: 42 ± 4 nM; Fold less potent than 7k (GI50) ([5]; GI50 ratio to 7k): 1.7 fold; IC50 [5]: 42 nM; Cell viability % (MCF-10A): 91%; IC50 (EGFR; read-out: EGFR inhibition IC50 ± SEM): 87 ± 5 nM; IC50 (VEGFR-2; read-out: VEGFR-2 inhibition IC50 ± SEM, kinase assay): 45 ± 3 nM
							CN(c1ccc2cn(C)nc2c1)c1ccnc(Nc2ccc(OC(F)(F)F)cc2)n1 [Compound IX]						IC50 (VEGFR-2 kinase): 12 nM
29 ± 1	32 ± 1	29 ± 1	29 ± 1	30	76 ± 4	31 ± 2	CCS(=O)(=O)c1ccc2[nH]nc(C(=O)N/N=C/c3ccn(C)n3)c2c1 [Compound 7o, (E)-5-(ethylsulfonyl)-N′-((1-methyl-1H-pyrazol-3-yl)methylene)-1H-indazole-3-carbohydrazide]	1.80 ± 0.001	480 ± 2	8 fold	285 ± 2	92	Fold more potent than erlotinib (MCF-7 IC50) [2]: 1.25 fold
26 ± 1	28 ± 1	26 ± 1	27 ± 1	27	74 ± 4	27 ± 1	CCS(=O)(=O)c1ccc2[nH]nc(C(=O)N/N=C/c3nc4ccccc4s3)c2c1 [Compound 7j, (E)-N′-(benzo[d]thiazol-2-ylmethylene)-5-(ethylsulfonyl)-1H-indazole-3-carbohydrazide]	1.50 ± 0.001	505 ± 3	8 fold and 8.5 fold	340 ± 2	91	
24 ± 1	26 ± 1	25 ± 1	24 ± 1	25	71 ± 4	21 ± 1	CCS(=O)(=O)c1ccc2[nH]nc(C(=O)N/N=C/c3ccc(OC)nc3)c2c1 [Compound 7k, (E)-5-(ethylsulfonyl)-N′-((6-methoxypyridin-3-yl)methylene)-1H-indazole-3-carbohydrazide]	1.20 ± 0.001	540 ± 3	9 fold	371 ± 2	93	Fold more potent than erlotinib (MCF-7 IC50) [2]: 1.5 fold; Fold more effective than erlotinib (GI50) ([5]; GI50 ratio to erlotinib): 1.3 fold; Bcl-2 fold reduction (Bcl-2; relative to untreated control): 4.2 fold
							C=CC(=O)Nc1cccc(Oc2nc(Nc3n[nH]c4ccccc34)cc(N3CCN(C)CC3)n2)c1 [Compound VIII]						IC50 (EGFR^T790M): 70 nM; IC50 (EGFR^L858R): 500 nM; IC50 (wild-type EGFR): 1700 nM
